Experimental data: patent US11542259B2, “Compounds for the treatment of kinase-dependent disorders” (Exelixis, Inc., priority 2018, dated 2023)
Counter-ions that a name gives are not always drawn.

Experiments:
Assay type in all cases: cell-based
Mer = Mer (Homo sapiens (Human), UniProt Q12866); assay: Mer autophosphorylation ELISA in transient transfected 293A cells; settings: cellular, MERTK transfected 293A cells
Protocol: 293A cells (Thermo Fisher #R70507) were seeded at 1.5×10^6 cells/well onto 100 mm dish (Greiner #664169), in DMEM (Thermo Fisher #11995-040) containing 10% FBS (Thermo Fisher #26140-079), 1% MEM NEAA (Thermo Fisher #11140-050), 1% GlutaMax (Thermo Fisher #35050-061), and 1% Penicillin Streptomycin (Thermo Fisher #15140-122). 293A cells were incubated at 37° C., 5% CO2 for 24 h and then transfected with 6 μg MERTK DNA (Genecopoeia #EX-Z8208-M02) using TransIT LT1 transfection reagent (Mirus-Bio #MIR2305). After 24 h incubation, the transfected 293A cells were seeded at 1×10^5 cells/well onto 96-well plates (Corning #3904) in DMEM growth medium overnight. Test compounds were serially diluted to produce an 8-point dose curve in fresh serum-free medium to a final concentration of 0.3% DMSO (vehicle) and added to the cells and incubated for 1 h. Cells were then immediately lysed with 150 μL of cold 1× lysis buffer [20 mM Tris, 137 mM sodium chloride, 2 mM EDTA, 10% glycerol, 1% NP-40 alternative, 1 mM activated sodium orthovanadate, 1 mM PefaBloc SC (Sigma-Aldrich #11429868001), protease/phosphatase inhibitor tablet (Thermo Fisher #A32959)]. Lysates were clarified by centrifugation and 50 μL/well added into the human phospho-Mer DuoSet IC ELISA (R&D Systems #DYC2579-2). Assay was performed according to manufacturer's instructions and sample phospho-Mer concentrations were extrapolated using human phospho-Mer control (R&D Systems #841793) as a standard. Positive control wells (100% activity) contained DMSO-treated cell lysates. Negative control wells (0% activity) contained reference inhibitor-treated cell lysates. IC50 values were calculated by nonlinear regression analysis using a 4-parameter logistic curve fit in ActivityBase XE (IDBS).

AXL = AXL (Homo sapiens (Human), UniProt P30530); assay: AXL autophosphorylation ELISA in A-172 cells; settings: cellular, Gas6 stimulated
In short: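 Serum-starved (24 h) A-172 glioblastoma cells pretreated 1 h with compounds (8-point curve, 0.3% DMSO), then stimulated 15 min with 1 μg/mL Gas6. Lysate phospho-AXL measured by sandwich ELISA against a phospho-AXL standard; IC50 from 4-parameter logistic fit between DMSO and reference-inhibitor controls.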

Met = Met (Homo sapiens (Human), UniProt P08581); assay: Met autophosphorylation ELISA in PC-3 cells; settings: cellular, HGF stimulated, read-out: c-Met IC50
In short: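 Phospho-Met (panTyr) sandwich ELISA on lysates of PC-3 cells given 100 ng/mL HGF for 10 min after 1 h compound exposure (8-point curve, 0.3% DMSO) following 3 h serum starvation. Normalised to HGF-stimulated DMSO and reference-inhibitor wells; 4-parameter logistic IC50.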

KDR = KDR (Homo sapiens (Human), UniProt P35968); assay: KDR autophosphorylation ELISA in HUVEC cells; settings: cellular, VEGF165 stimulated
In short: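 HUVECs grown 24 h at 37 °C, then serum-starved 24 h, were preincubated 1 h with an 8-point compound series (0.3% DMSO) and stimulated with 100 ng/mL human VEGF165 for 5 min. Phospho-KDR in lysates was measured by sandwich ELISA against a phospho-KDR standard; IC50 from 4-parameter logistic fit.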

Mer, sequence (Q12866 21-999): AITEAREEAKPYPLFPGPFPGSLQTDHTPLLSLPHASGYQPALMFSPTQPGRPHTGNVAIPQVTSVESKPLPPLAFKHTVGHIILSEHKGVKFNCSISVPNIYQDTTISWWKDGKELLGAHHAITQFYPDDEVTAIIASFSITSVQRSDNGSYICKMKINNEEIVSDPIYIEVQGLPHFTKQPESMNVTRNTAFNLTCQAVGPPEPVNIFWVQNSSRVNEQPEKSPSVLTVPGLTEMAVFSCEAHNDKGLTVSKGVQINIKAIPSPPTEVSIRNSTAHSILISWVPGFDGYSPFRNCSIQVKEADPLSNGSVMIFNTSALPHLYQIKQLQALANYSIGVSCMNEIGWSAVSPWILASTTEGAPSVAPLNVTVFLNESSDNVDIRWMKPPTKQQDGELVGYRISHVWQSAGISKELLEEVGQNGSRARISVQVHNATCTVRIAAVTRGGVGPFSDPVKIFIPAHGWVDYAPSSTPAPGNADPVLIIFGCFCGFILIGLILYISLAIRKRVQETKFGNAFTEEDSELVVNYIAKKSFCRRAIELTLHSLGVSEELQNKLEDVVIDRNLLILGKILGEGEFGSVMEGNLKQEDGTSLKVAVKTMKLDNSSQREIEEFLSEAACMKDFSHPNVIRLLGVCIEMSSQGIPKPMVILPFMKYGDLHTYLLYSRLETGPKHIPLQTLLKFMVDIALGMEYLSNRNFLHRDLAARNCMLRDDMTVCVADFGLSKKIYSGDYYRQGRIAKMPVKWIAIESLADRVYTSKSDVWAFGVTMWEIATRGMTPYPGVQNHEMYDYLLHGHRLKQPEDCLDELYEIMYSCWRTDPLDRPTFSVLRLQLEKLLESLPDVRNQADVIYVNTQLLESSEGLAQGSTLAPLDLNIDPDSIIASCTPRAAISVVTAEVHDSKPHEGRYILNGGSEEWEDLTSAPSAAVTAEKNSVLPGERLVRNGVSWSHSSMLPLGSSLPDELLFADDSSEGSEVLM
Met, sequence (P08581 25-1390): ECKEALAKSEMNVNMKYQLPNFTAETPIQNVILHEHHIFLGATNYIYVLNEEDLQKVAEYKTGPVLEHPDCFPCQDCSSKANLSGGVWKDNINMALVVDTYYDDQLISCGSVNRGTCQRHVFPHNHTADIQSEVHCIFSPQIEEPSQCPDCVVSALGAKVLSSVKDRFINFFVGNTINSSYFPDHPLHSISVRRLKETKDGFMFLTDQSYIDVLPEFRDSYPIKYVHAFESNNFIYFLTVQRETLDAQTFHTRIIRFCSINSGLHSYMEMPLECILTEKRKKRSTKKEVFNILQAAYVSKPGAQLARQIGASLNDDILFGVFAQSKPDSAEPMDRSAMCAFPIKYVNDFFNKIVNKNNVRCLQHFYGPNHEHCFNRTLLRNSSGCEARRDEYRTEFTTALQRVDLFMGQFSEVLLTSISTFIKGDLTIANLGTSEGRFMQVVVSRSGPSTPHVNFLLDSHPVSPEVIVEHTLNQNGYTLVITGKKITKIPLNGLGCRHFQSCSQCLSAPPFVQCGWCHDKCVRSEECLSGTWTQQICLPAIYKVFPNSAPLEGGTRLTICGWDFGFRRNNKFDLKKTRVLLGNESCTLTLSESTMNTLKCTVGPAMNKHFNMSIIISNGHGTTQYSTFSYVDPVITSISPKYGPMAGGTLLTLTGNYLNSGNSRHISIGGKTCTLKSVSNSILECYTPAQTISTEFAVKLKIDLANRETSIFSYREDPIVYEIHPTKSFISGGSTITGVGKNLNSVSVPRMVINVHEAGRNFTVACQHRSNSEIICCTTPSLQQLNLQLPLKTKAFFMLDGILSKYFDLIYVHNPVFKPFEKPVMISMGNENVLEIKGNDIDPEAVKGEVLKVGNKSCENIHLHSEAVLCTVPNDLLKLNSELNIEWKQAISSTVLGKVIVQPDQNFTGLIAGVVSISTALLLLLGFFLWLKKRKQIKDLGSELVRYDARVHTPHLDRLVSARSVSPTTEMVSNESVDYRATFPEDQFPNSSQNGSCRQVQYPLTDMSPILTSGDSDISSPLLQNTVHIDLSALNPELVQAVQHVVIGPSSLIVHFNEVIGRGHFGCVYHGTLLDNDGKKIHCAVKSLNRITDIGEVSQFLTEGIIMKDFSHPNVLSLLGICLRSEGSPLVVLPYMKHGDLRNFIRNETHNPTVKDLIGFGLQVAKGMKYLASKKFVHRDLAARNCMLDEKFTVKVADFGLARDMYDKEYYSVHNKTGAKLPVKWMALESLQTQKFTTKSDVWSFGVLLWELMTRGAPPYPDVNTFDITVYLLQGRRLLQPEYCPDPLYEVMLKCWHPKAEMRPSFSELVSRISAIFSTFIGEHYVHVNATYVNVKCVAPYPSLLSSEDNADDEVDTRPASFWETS
KDR, sequence (P35968 20-1356): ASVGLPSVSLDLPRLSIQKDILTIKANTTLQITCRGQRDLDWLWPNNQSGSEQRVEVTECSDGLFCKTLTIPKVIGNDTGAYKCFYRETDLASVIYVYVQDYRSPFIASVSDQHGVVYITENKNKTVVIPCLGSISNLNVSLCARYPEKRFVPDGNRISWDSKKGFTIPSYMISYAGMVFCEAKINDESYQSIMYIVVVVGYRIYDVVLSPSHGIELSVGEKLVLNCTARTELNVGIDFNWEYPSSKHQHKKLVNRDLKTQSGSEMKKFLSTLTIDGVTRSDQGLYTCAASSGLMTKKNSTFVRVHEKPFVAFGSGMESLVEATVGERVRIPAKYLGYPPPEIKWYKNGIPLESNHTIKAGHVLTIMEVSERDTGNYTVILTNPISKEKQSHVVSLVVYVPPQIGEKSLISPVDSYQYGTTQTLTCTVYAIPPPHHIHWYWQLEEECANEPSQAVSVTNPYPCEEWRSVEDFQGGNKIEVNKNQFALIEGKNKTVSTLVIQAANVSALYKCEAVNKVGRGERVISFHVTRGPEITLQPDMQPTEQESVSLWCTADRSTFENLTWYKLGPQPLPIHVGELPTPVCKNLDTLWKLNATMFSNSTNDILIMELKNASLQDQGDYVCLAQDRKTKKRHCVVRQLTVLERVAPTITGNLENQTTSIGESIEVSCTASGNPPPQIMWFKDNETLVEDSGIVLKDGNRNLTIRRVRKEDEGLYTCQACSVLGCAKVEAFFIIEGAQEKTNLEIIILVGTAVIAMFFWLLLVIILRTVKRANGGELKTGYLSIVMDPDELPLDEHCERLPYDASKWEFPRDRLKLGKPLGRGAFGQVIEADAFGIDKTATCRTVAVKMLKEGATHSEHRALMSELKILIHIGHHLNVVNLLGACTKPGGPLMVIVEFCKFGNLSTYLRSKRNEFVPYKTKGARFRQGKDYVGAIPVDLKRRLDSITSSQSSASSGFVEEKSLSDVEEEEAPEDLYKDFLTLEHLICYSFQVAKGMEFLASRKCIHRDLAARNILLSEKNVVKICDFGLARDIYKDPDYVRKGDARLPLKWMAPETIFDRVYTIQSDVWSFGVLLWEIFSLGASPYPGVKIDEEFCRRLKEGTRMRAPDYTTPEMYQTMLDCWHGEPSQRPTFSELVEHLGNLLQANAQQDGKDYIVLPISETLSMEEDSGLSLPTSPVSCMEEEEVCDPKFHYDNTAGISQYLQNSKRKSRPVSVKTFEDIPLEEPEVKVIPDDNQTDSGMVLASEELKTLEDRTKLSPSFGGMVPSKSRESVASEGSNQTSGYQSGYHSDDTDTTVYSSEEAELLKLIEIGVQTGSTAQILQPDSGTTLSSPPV
AXL, sequence (P30530 26-894): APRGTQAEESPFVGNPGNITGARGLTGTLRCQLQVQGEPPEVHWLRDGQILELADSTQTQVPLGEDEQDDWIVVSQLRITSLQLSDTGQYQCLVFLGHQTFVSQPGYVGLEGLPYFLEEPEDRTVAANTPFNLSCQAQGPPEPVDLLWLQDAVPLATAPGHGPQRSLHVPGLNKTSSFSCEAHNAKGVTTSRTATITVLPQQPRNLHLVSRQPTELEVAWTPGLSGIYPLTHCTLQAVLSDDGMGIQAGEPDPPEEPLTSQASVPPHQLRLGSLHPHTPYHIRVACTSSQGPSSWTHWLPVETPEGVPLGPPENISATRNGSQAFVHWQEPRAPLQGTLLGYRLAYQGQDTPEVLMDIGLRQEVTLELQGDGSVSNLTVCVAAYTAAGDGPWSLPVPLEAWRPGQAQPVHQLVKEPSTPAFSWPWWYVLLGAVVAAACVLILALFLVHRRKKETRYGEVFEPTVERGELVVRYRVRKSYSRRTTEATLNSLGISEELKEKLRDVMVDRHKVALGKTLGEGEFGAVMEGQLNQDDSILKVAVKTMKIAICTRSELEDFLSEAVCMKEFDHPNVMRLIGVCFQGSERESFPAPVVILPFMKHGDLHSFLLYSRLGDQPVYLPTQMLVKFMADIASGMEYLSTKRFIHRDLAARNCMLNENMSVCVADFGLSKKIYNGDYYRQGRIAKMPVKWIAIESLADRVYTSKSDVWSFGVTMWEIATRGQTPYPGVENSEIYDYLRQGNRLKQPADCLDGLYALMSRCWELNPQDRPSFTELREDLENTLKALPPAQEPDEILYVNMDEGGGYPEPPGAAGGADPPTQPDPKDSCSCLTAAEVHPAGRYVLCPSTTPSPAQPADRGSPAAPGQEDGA

SMILES | IC50 (Mer) [nM] | IC50 (AXL) [nM] | IC50 (Met) [nM] | IC50 (KDR) [nM]
COc1cc2nccc(Oc3ccc(NC(=O)C4(C(=O)Nc5ccc(F)cc5)CC4)cc3)c2cc1C(=O)NOC1COC1 [Compound 26, 1-N′-(4-fluorophenyl)-1-N-[4-[7-methoxy-6-(oxetan-3-yloxycarbamoyl)quinolin-4-yl]oxyphenyl]cyclopropane-1,1-dicarboxamide] | 10 to 100 | 10 to 100 | 10 to 100 | ≤ 10
CC(O)COc1cc2nccc(Oc3ccc(NC(=O)C4(C(=O)Nc5ccc(F)cc5)CC4)cc3)c2cc1-c1ncco1 (stereo not shown) [Compound 125, 1-N′-(4-Fluorophenyl)-1-N-[4-[7-(2-hydroxypropoxy)-6-(1,3-oxazol-2-yl)quinolin-4-yl]oxyphenyl]cyclopropane-1,1-dicarboxamide] | ≤ 10 | ≤ 10 | 10 to 100 | 10 to 100
O=C(Nc1ccc(F)cc1)C1(C(=O)Nc2ccc(Oc3ccnc4cc(OCCO)c(-c5ncco5)cc34)cc2)CC1 [Compound 50, 1-N′-(4-Fluorophenyl)-1-N-[4-[7-(2-hydroxyethoxy)-6-(1,3-oxazol-2-yl)quinolin-4-yl]oxyphenyl]cyclopropane-1,1-dicarboxamide] | ≤ 10 | ≤ 10 | ≤ 10 | ≤ 10
CNC(=O)c1cc2c(Oc3ccc(NC(=O)C4(C(=O)Nc5ccc(F)cc5Cl)CC4)cc3F)ccnc2cc1OC [Compound 264, 1-N′-(2-Chloro-4-fluorophenyl)-1-N-[3-fluoro-4-[7-methoxy-6-(methylcarbamoyl)quinolin-4-yl]oxyphenyl]cyclopropane-1,1-dicarboxamide] | 10 to 100 | 10 to 100 | 10 to 100 | 10 to 100
NC(=O)c1cc2c(Oc3ccc(NC(=O)C4(C(=O)Nc5ccc(F)cc5)CC4)cc3)ccnc2cc1NCCCN1CCOCC1 [Compound 71, 1-N-[4-[6-Carbamoyl-7-(3-morpholin-4-ylpropylamino)quinolin-4-yl]oxyphenyl]-1-N′-(4-fluorophenyl)cyclopropane-1,1-dicarboxamide] | 10 to 100 | 10 to 100 | 10 to 100 | 10 to 100
COc1cc2nccc(Oc3ccc(NC(=O)C4(C(=O)Nc5ccc(F)cc5)CC4)cc3)c2cc1P(C)(C)=O [Compound 51, 1-N-[4-(6-Dimethylphosphoryl-7-methoxyquinolin-4-yl)oxyphenyl]-1-N′-(4-fluorophenyl)cyclopropane-1,1-dicarboxamide] | 100 to 300 | 10 to 100 | 10 to 100 | 100 to 300
CNC(=O)c1cc2c(Oc3ccc(NC(=O)C4(C(=O)Nc5ccc(F)cc5)CC4)cc3)ccnc2cc1OCCO [Compound 110, 1-N′-(4-Fluorophenyl)-1-N-[4-[7-(2-hydroxyethoxy)-6-(methylcarbamoyl)quinolin-4-yl]oxyphenyl]cyclopropane-1,1-dicarboxamide] | 10 to 100 | ≤ 10 | ≤ 10 | ≤ 10
COc1cc2nccc(Oc3ccc(NC(=O)C4(C(=O)Nc5ccc(F)cc5)CC4)cc3)c2cc1C(=O)NOCCO [Compound 27, 1-N′-(4-fluorophenyl)-1-N-[4-[6-(2-hydroxyethoxycarbamoyl)-7-methoxyquinolin-4-yl]oxyphenyl]cyclopropane-1,1-dicarboxamide] | 10 to 100 | ≤ 10 | 10 to 100 | ≤ 10
COc1cc2nccc(Oc3ccc(NC(=O)C4(C(=O)Nc5ccc(F)cc5)CC4)cc3)c2cc1-c1cnco1 [Compound 192, 1-N′-(4-Fluorophenyl)-1-N-[4-[7-methoxy-6-(1,3-oxazol-5-yl)quinolin-4-yl]oxyphenyl]cyclopropane-1,1-dicarboxamide] | ≤ 10 | ≤ 10 | 10 to 100 | ≤ 10
O=C(NOC[C@H](O)CO)c1ccc2c(Oc3ccc(NC(=O)C4(C(=O)Nc5ccc(F)cc5)CC4)cc3)ccnc2c1 [Compound 169, 1-N-[4-[7-[[(2R)-2,3-Dihydroxypropoxy]carbamoyl]quinolin-4-yl]oxyphenyl]-1-N′-(4-fluorophenyl)cyclopropane-1,1-dicarboxamide] | > 300 | 100 to 300 | 100 to 300 | 100 to 300

More lines, now with the values ahead:

IC50 (Mer) [nM] | IC50 (AXL) [nM] | IC50 (Met) [nM] | IC50 (KDR) [nM] | SMILES
100 to 300 | 100 to 300 | 100 to 300 | 100 to 300 | CO/N=C/c1ccc2c(Oc3ccc(NC(=O)C4(C(=O)Nc5ccc(F)cc5)CC4)cc3)ccnc2c1 [Compound 278, 1-N′-(4-Fluorophenyl)-1-N-[4-[7-[(E)-methoxyiminomethyl]quinolin-4-yl]oxyphenyl]cyclopropane-1,1-dicarboxamide]
10 to 100 | 10 to 100 | 100 to 300 | 10 to 100 | CNC(=O)c1cc2c(Oc3ccc(NC(=O)C4(C(=O)Nc5ccc(F)cc5OC(C)C)CC4)cc3F)ccnc2cc1OC [Compound 269, 1-N-[3-Fluoro-4-[7-methoxy-6-(methylcarbamoyl)quinolin-4-yl]oxyphenyl]-1-N′-(4-fluoro-2-propan-2-yloxyphenyl)cyclopropane-1,1-dicarboxamide]
100 to 300 | 10 to 100 | ≤ 10 | 100 to 300 | O=C(NOCCO)c1ccc2c(Oc3cc(F)c(NC(=O)C4(C(=O)Nc5ccc(F)cc5)CC4)cc3F)ccnc2c1 [Compound 302, 1-N′-[2,5-Difluoro-4-[7-(2-hydroxyethoxycarbamoyl)quinolin-4-yl]oxyphenyl]-1-N-(4-fluorophenyl)cyclopropane-1,1-dicarboxamide]
≤ 10 | ≤ 10 | 10 to 100 | ≤ 10 | COC(=O)Nc1cc2c(Oc3ccc(NC(=O)C4(C(=O)Nc5ccc(F)cc5)CC4)cc3)ccnc2cc1OC [Compound 280, Methyl N-[4-[4-[[1-[(4-fluorophenyl)carbamoyl]cyclopropane-carbonyl]amino]phenoxy]-7-methoxyquinolin-6-yl]carbamate]
≤ 10 | ≤ 10 | ≤ 10 | 10 to 100 | Cc1cc2c(Oc3cc(F)c(NC(=O)C4(C(=O)Nc5ccc(F)cc5)CC4)cc3F)ccnc2cc1C(N)=O [Compound 294, 1-N′-[4-(7-Carbamoyl-6-methylquinolin-4-yl)oxy-2,5-difluorophenyl]-1-N-(4-fluorophenyl)cyclopropane-1,1-dicarboxamide]
10 to 100 | ≤ 10 | 10 to 100 | 10 to 100 | CNC(=O)c1cc2c(Oc3ccc(NC(=O)C4(C(=O)Nc5ccc(F)cc5C)CC4)cc3F)ccnc2cc1OC [Compound 265, 1-N-[3-Fluoro-4-[7-methoxy-6-(methylcarbamoyl)quinolin-4-yl]oxyphenyl]-1-N′-(4-fluoro-2-methylphenyl)cyclopropane-1,1-dicarboxamide]
10 to 100 | 10 to 100 | 10 to 100 | > 300 | CNC(=O)c1cc2nccc(Oc3cc(Cl)c(NC(=O)C4(C(=O)Nc5ccc(F)cc5)CC4)cc3F)c2cc1C [Compound 291, 1-N′-[2-Chloro-5-fluoro-4-[6-methyl-7-(methylcarbamoyl)quinolin-4-yl]oxyphenyl]-1-N-(4-fluorophenyl)cyclopropane-1,1-dicarboxamide]
10 to 100 | 10 to 100 | 10 to 100 | 10 to 100 | CCc1noc(-c2cc3c(Oc4ccc(NC(=O)C5(C(=O)Nc6ccc(F)cc6)CC5)cc4)ccnc3cc2OC)n1 [Compound 283, 1-N-[4-[6-(3-Ethyl-1,2,4-oxadiazol-5-yl)-7-methoxyquinolin-4-yl]oxyphenyl]-1-N′-(4-fluorophenyl)cyclopropane-1,1-dicarboxamide Hydrochloride]
10 to 100 | 10 to 100 | 10 to 100 | 10 to 100 | CNC(=O)c1cc2c(Oc3ccc(NC(=O)C4(C(=O)Nc5ccc(F)cc5C5CC5)CC4)cc3F)ccnc2cc1OC [Compound 270, 1-N′-(2-Cyclopropyl-4-fluorophenyl)-1-N-[3-fluoro-4-[7-methoxy-6-(methylcarbamoyl)quinolin-4-yl]oxyphenyl]cyclopropane-1,1-dicarboxamide]
